Laboratory results taken from patent US20160374979A1, “Method of Treatment of Alopecia with Monoterpenoids” (CELLMID LIMITED, priority 2013, published 2016).
Entries after “also recorded” stand apart in the source; their conditions may differ.

Key:
[1] = test system: Alkaline Phosphatase (ALP) activity in dermal papilla (DP) cells treated with FGF-5; assay: Dermal papilla alkaline phosphatase (DP-ALP) cell assay; type: cell-based, human; conditions: for relative ALP activity of DP cells treated FGF-5: 0.005-0.5 mg/ml, GSK3 inhibitor IX + rhFGF-5 1 μg/mL, 3 days, absorbance 490 nm; for FGF-5-inhibitory activity ranked from most active to least active by DP-ALP assay: rank order
Procedure: Dermal papilla cells were prepared according to the methods described in WO2013/105417, Briefly, hairs were pulled from the scalp of a healthy subject showing normal non-alopecia hair growth using tweezers. Hair follicles with dermal papilla were thus obtained at a rate of approximately one for every 100 hairs pulled. The hair follicles with dermal papilla were separated from the hair using tweezers and transferred into a saline for inspection under a microscope. Under a microscope, each dermal papilla was isolated from a respective hair follicle using tweezers and a scalpel. Approximately 2000 isolated dermal papilla cells were then transferred to a 35 mm cell culture dish together 1-2 ml of cell culture medium, after which time the cells were cultured at 37° C. to produce a primary cell culture of dermal papilla. The cell culture medium consisted of approximately 90% DMEM medium, 10% fetal bovine serum (final concentration: 10%), FGF2 (final, concentration: 10 ng/ml), and penicillin-streptornycin solution (final concentration: 1 μg/ml) for every 2 mL of medium. Cell culture conditions were maintained for more than 14 days until dermal papilla cells covered approximately 40% of the area of the 35 mm culture dish, at which time subcultures were performed. To prepare the subcultures, the cell culture medium was removed from the 35 mm culture dish and the adherent cells were washed once with 2 ml of saline (at room temperature). 1 ml Trypsin-EDTA solution (0.1% trypsin and 0.02% EDTA) was then added to the 35 mm culture dish and left to stand for 4 minutes at 37° C. Dissociated dermal papilla cells were then recovered from the 35 mm dish, and seeded to a new 100 mm dish, and cultured in media under the same conditions as for the primary cell culture described above.
When the dermal papilla cells covered approximately 70-80% of the area of each 100 mm culture dish, the sub-confluent cells were subcultured as before. The process was repeated until sufficient cells were obtained to screen compounds of interest.
Once sufficient DP cells were obtained, the cells were harvested to provide a cell suspension. To harvest the DP cells, the cell culture medium was removed from the culture dish, and the adherent cells were washed with saline at room temperature. Trypsin-EDTA solution was then added under conditions described supra to dissociate the cells from the cell culture dish. Approximately 5×10^5 of the dissociated cells were resuspended in 500 ml of assay medium containing 445 ml of DMEM medium, 50 ml of 10% fetal calf serum and 5 ml of antibiotic.
Aliquots of the cell suspension were transferred to the wells of cell culture dishes, and a single monoterpenoid listed in Example 1 e.g., (−)-4-terpinen-4-ol, (+)-4-terpinen-4-ol. (±)-4-terpinen-4-ol, α-terpineol, nonanal, linalyl acetate or piperitone, is added to each well at a concentration of 0.005 (mg/ml) or 0.01 (mg/ml) or 0.05 (mg/ml) or 0.1 (mg/ml) or 0.5 (mg/ml). Cell suspensions were transferred to wells of a further cell culture dish to which minoxidil was then added at a concentration of 0.005 (mg/ml) or 0.01 (mg/ml) or 0.05 (mg/ml) or 0.1 (mg/ml) or 0.5 (mg/ml). A Wnt/β-catenin pathway activation agent e.g., Wnt3a or GSK-3 Inhibitor IX, as added to each of the cell cultures to produce an “activated cell culture”. Control cell cultures containing the same monoterpenoid compound or minoxodil, but lacking the Wnt/β-cinenin pathway activation agent, were processed in parallel. These activated and control cell cultures were divided further into duplicate cell culture samples either lacking FGF-5 or to which recombinant human FGF-5 (rhFGF-5; 1 μg/mL)) was added.
The cell culture samples were each cultured at 37° C. for 3 days under atmosphere containing less than 5% CO2. […]

[2] = test system: FGF-5-dependent cell proliferation (FR-BaF3 cells expressing FGFR-1c); assay: FR-Ba/F3 cell proliferation/viability assay in the presence of FGF-5 (CCK-8); type: cell-based, murine; conditions: for FGF-5-inhibitory activity (in words): judged from FR-BaF3 result; for Suppression of FGF-5-dependent cell proliferation and viability: FR-BaF3 cells, in words (FIGS. 1(a)-1(h)); for FGF-5 Specificity IL-1/FGF-5: ratio of the IC50 with IL-3 to the IC50 with FGF-5, BR: less reproducible
Procedure: Ba/F3 is a murine interleukin-3 (IL-3)-dependent pro-B cell line. […] That is, compounds were tested for their ability to modulate proliferation of FR-Ba/F3 cells in the presence of recombinant human FGF-5 (rhFGF-5) prepared according to Maeda et al., Nishi Nihon Hifuka, 69(1): 81-86, 2007.
Briefly, a suitable plasmid expressing FGFR-1c was introduced into […] ER-Ba/F3 cells, and the cells were maintained in RPMI RPMI-1640 with 10% FBS and 1.3×10^−17 M of murine IL-3 (Sigma, St Louis, […].) containing antibiotic G418 sulfate (Promega, Medison, Wis.). The inventors compared proliferation of FR/BaF3 cells in culture medium containing IL3 or FGF-5 and a different concentration in the range from 0.005% (w/v) to 1.0% (w/v) of each test compound listed in Example 1. The FR-BaF3 cells were seeded at 5×10^4/mL cells per well in 96-well, micro-culture plates (Falcon) in RPMI-1640 culture medium containing 10% fetal bovine serum, 5 μg/mL heparin. Recombinant human FGF-5 (rhFGF-5; 1 μg/mL) was added to one group, and IL-3 (0.2 ng/mL) (Sigma) was added to another group. The test compounds were then introduced to the micro-culture plate wells. Total volume of media per well was 100 μl. Control groups lacking test compound were also prepared for each of the IL-3-supplemented and FGF-5-supplemented samples. The plates were then incubated at 37° C. in 5% CO2 for 3 days.
After 3 days, colorimetric assays were performed using a Cell Counting Kit-8 (CCK-8) (Wako) according to the manufacturer's instructions to measure cell proliferation or suppression thereof by the test compound at varying concentrations. Briefly, 10 μl (1:2 dilution) of the CCK-8 reagent was added to each micro-culture plate well after which time the plates were incubated at […] for 3 hours. Absorbance at 450 nm was then measured using a microplate reader. Cell viability and proliferation for the IL-3-supplemented and FGF-5-supplemented groups was calculated as a measure of the optical density (OD) of cells treated with a test compound relative to the OD of the respective untreated controls, excluding the OD of blank controls (media only). Dose response curves were plotted and the respective inhibitory concentrations (IC50) for the test compounds were determined.

Structure (SMILES) | relative ALP activity of DP cells treated FGF-5 [1] | FGF-5-inhibitory activity ranked from most active to least active by DP-ALP assay [1] | FGF-5-inhibitory activity (in words) [2] | Suppression of FGF-5-dependent cell proliferation and viability [2] | FGF-5 Specificity IL-1/FGF-5 [2] | FGF-5-inhibitory activity (in words) ([2]; listed as (−)-terpinen-4-ol)
CC1=CCC(O)(C(C)C)CC1 (racemic) [(±)-4-Terpinen-4-ol, 1-Isopropyl-4-methyl-3-cyclohexen-1-ol] | increased relative ALP activity | Piperitone>(−)-terpinen-4-ol>(±)-Terpinen-4β-Terpineol> (+)-Terpinen-4-ol > Linalyl Acetate | potent FGF-5-inhibitory active substances |  |  | 
CC1=CC[C@](O)(C(C)C)CC1 [(+)-4-Terpinen-4-ol, (1S)-1-Isopropyl-4-methyl-3-cyclohexen-1-ol] | increased relative ALP activity | Piperitone>(−)-terpinen-4-ol>(±)-Terpinen-4β-Terpineol> (+)-Terpinen-4-ol > Linalyl Acetate | potent FGF-5-inhibitory active substances | Suppression of FGF-5-dependent cell proliferation and viability was observed | 9.1> | 
CC1=CC[C@@](O)(C(C)C)CC1 [(−)-4-Terpinen-4-ol, (R)-1-Isopropyl-4-methyl-3-cyclohexen-1-ol] | high alkaline phosphatase activity; also recorded: higher alkaline phosphatase activity in dermal papillae than a racemic mixture of terpinen-4-al or (+)-Terpinen-4-ol; also recorded: increased relative ALP activity | Piperitone>(−)-terpinen-4-ol>(±)-Terpinen-4β-Terpineol> (+)-Terpinen-4-ol > Linalyl Acetate | potent FGF-5-inhibitory active substances | Suppression of FGF-5-dependent cell proliferation and viability was observed | 2> | high FGF-5 inhibitory activity; also recorded: higher FGF-5 inhibitory activity than (+)-terpinen-4-ol
CC(=O)OC/C=C(\C)CCC=C(C)C [Geranyl acetate, (2E)-3,7-Dimethyl-2,6-octadien-1-yl acetate] |  |  |  | Suppression of FGF-5-dependent cell proliferation and viability was observed | 8 (BR) | 
C=CC(C)(O)CCC=C(C)C (stereo not drawn) [Linalool, 3,7-Dimethyl-1,6-octadien-3-ol] |  |  |  | Suppression of FGF-5-dependent cell proliferation and viability was observed | 30> (BR) | 
C=CC(C)(CCC=C(C)C)OC(C)=O (stereo not drawn) [Linalyl acetate, 3,7-Dimethyl-1,6-octadien-3-yl acetate] |  | Piperitone>(−)-terpinen-4-ol>(±)-Terpinen-4β-Terpineol> (+)-Terpinen-4-ol > Linalyl Acetate | potent FGF-5-inhibitory active substances | Suppression of FGF-5-dependent cell proliferation and viability was observed |  | 
CCCCCCCCC=O [Nonanal, reference compound] |  |  | potent FGF-5-inhibitory active substances |  | 9 | 
C=C(C)C1CC=C(C)C(O)C1 (stereo not drawn) [l-Carveol, 2-Methyl-5-(1-methylethenyl)-2-cyclohexen-1-ol] |  |  |  | Suppression of FGF-5-dependent cell proliferation and viability was observed | 2 | 
CC1=CCC(C(C)(C)O)CC1 (stereo not drawn) [α-Terpineol, 2-(4-Methyl-3-cyclohexen-1-yl)-2-propanol] | increased relative ALP activity | Piperitone>(−)-terpinen-4-ol>(±)-Terpinen-4β-Terpineol> (+)-Terpinen-4-ol > Linalyl Acetate | potent FGF-5-inhibitory active substances | Suppression of FGF-5-dependent cell proliferation and viability was observed | 5> | 
